Test results taken from patent US20250064760A1, “INTRACANALICULAR INSERT COMPRISING A NON-STEROIDAL ANTI-INFLAMMATORY AGENT” (OCULAR THERAPEUTIX, INC., priority 2022, published 2025).
Values after ≈ are worked out from the molar mass of the structure shown. Values joined by “and” are separate entries in the source; they are usually repeats but may differ in a detail not shown here. Equal entries are not always repeated.

What was measured:
[1] = aqueous suspension at 0.1%; cited from earlier work
Nepafenac solubility = format: physicochemical; settings: aqueous buffer; PBS, pH 7.2 at 37° C.
Description: Nepafenac is a monocarboxylic acid amide that is amfenac in which the carboxylic acid group has been converted into the corresponding carboxamide. Nepafenac is yellow crystalline or powdery substance practically insoluble in water (14 mcg/mL). Nepafenac is soluble in organic solvents such as ethanol, DMSO, and dimethyl formamide (DMF). The solubility of nepafenac in ethanol is approximately 0.5 mg/mL and approximately 30 mg/ml in DMSO and DMF. An aqueous suspension at 0.1% gives an average pH of 6.75. The coefficient partition n-octanol/water is 128. […] Nepafenac is an achiral substance and there are no possible variations in the stereochemical configuration.
Nepafenac solubility testing in PBS, pH 7.2 at 37° C. is approximately 102 mcg/mL.

[2] = cited from earlier work
[3] = cited from earlier work; remark: listed apart in the source
[4] = molecular target: T1, cyclooxygenase-2 (COX-2) enzyme (Homo sapiens, UniProt P35354); settings: Walters et al., 2007; cited from earlier work
T1 sequence (P35354 18-604): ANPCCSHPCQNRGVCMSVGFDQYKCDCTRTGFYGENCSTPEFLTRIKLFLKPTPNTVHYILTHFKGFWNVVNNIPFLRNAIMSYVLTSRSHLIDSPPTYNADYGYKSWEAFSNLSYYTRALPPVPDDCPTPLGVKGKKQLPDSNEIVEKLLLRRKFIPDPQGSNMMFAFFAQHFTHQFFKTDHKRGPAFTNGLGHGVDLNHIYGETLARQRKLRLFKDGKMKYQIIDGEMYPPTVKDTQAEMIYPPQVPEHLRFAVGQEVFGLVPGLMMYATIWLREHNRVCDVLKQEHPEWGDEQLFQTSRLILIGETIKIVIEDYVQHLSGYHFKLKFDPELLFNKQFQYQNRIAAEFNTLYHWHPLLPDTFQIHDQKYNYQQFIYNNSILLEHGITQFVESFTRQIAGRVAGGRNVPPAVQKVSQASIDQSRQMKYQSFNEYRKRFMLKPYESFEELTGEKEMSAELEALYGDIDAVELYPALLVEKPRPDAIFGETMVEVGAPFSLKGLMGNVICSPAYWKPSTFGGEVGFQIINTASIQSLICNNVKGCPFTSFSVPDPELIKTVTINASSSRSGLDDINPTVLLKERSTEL

SMILES	average pH of aqueous suspension [1]	solubility (Nepafenac solubility) [µg/mL]	coefficient partition n-octanol/water [2]	solubility in DMF ([3]; DMF)	solubility in DMSO ([3]; DMSO)	solubility in ethanol ([3]; ethanol)	solubility in water ([3]; water) [µg/mL]	IC50 [4]
NC(=O)Cc1cccc(C(=O)c2ccccc2)c1N [Nepafenac, 2-(2-amino-3-benzoylphenyl)acetamide]	6.75	~102 (≈ 401 µM)	128	approximately 30 mg/ml	approximately 30 mg/ml	approximately 0.5 mg/mL	14 (≈ 55.1 µM)	
Nc1c(CC(=O)O)cccc1C(=O)c1ccccc1 [amfenac]								~1.76 nM and 1.76 nM
